Earlier results in the CATMoS acute toxicity set (Mansouri et al. 2021).
Several values for one entry are separate records, joined by “and”; a condition that tells them apart may be missing. Equal values may be shown once.

assay: rat acute oral toxicity; details: in vivo

SMILES	LD50
CC(C)=NN=C(C)C	423 mg/kg
CC(C)C(=O)N(C)C(=O)Oc1cccc(C(C)C)c1	631 mg/kg
CCc1c(C)nc2cccc(C)n2c1=O	690 mg/kg
COc1c(OP(=S)(OCC(C)C)OCC(C)C)cnn(C)c1=O	135 mg/kg
COc1ccc2c3c1O[C@H]1[C@H](N=[N+]=[N-])CC[C@H]4[C@@H](C2)N(C)CC[C@@]341	120 mg/kg
C=CC=NNc1ccccc1	700 mg/kg
CCCCOC(=O)CC(C(=O)OCCCC)P(=O)(OCCCC)OCCCC (stereo unspecified)	25000 mg/kg
C1COCCOCCNCCOCCOCCN1	3400 mg/kg
CNC(=O)Nc1ccccc1	3440 mg/kg
C/C=C/Cl	1950 mg/kg
COc1cc(C(=O)OC2CCC(N3CCCCC3)CC2)cc(OC)c1OC (stereo unspecified)	650 mg/kg
CNC(=O)c1c(I)c(C(=O)NCC(=O)Nc2c(I)c(C(=O)O)c(I)c(C(=O)NCCO)c2I)c(I)c(N(C)C(C)=O)c1I	13300 mg/kg
CC(C)(C)NCC(O)COc1ccccc1C#N (stereo unspecified)	639 mg/kg
COc1c(OC)c(Cl)c2[nH]c(C(F)(F)F)nc2c1Cl	100 mg/kg
CCOC(=O)COc1ccc2c(C)c(CCN(CC)CC)c(=O)oc2c1	8000 mg/kg
O=S(=O)(Cl)CCl	372 mg/kg
COP(=S)(OC)Oc1ccc([N+](=O)[O-])c(Cl)c1	285 mg/kg
C=C[C@]1(C)C[C@@H](OC(=O)CSCCN(CC)CC)[C@]2(C)[C@H](C)CC[C@]3(CCC(=O)[C@H]32)[C@@H](C)[C@@H]1O	2230 mg/kg
CNC(=S)N(C)C	316 mg/kg
Cc1cc(=O)oc2cc(OP(=O)(OCCCl)OCCCl)ccc12	141 mg/kg
OC1(c2ccc(F)cc2)c2ccccc2C2=NCCN21 (stereo unspecified)	200 mg/kg
CNC(C)C1CCC(N)C(OC2C(N)CC(N)C(OC3OCC(C)(O)C(NC)C3O)C2O)O1 (stereo unspecified)	6600 mg/kg
O=C(O)[C@@H]1CS[C@H](c2ccccc2O)N1C(=O)CCS	8290 mg/kg
CN1C(=O)CCS(=O)(=O)C1c1ccc(Cl)cc1 (stereo unspecified)	605 mg/kg
CN1CC(CC(C#N)C(N)=O)CC2c3cccc4[nH]cc(c34)CC21 (stereo unspecified)	1000 mg/kg
CCCNC(=O)OCC(O)C1COc2ccccc2O1 (stereo unspecified)	1500 mg/kg

SMILES	LD50
Nc1ccc([N+](=O)[O-])cc1Cl	6430 mg/kg
ClC(Cl)=C(c1ccc(Cl)cc1)c1ccccc1Cl	880 mg/kg
CCOC(=O)CC(C)(C)C(Cl)C=C(Cl)Cl (stereo unspecified)	3170 mg/kg
CCCCc1ccc(O)cc1O	500 mg/kg
C=CC[N+](C)(C)CC=C	3000 mg/kg
COc1ccccc1C=O	2500 mg/kg
O=[N+]([O-])c1cc([N+](=O)[O-])c(F)cc1F	50 mg/kg
CNC(=O)Oc1ccccc1C1OCC=CCO1	35 mg/kg
CC(C)(Oc1ccc(CCNC(=O)c2ccc(Cl)cc2)cc1)C(=O)O	1080 mg/kg
CCCCCOc1ccc(Br)cc1COCCN(CC)CC	320 mg/kg
CCCSP(=S)(OCC)Oc1ccc(Cl)cc1Cl (stereo unspecified)	875 mg/kg
O=C1CCc2cc(CCCN3CCN(c4ccccc4)CC3)ccc2N1	500 mg/kg
Cc1cc(Sc2cc(C)c(O)c(C(C)(C)C)c2)cc(C(C)(C)C)c1O	6340 mg/kg
COC(=O)OC	13000 mg/kg
O=C(CF)Nc1ccccn1	8 mg/kg
Cc1ccc(C(=O)c2ccc(CC(=O)N3CCN(C)CC3)n2C)cc1	1000 mg/kg
O=C(OCC(O)CO)c1ccccc1Nc1ccnc2c(C(F)(F)F)cccc12 (stereo unspecified)	535 mg/kg
CCN(COC(C)=O)N=O	810 mg/kg
O=C(CF)OCCOC(=O)CF	2.2 mg/kg
CC1(C)C(C(=O)OCc2coc(Cc3ccccc3)c2)C1(C)C	141 mg/kg
CCNCc1cc([N+](=O)[O-])ccc1O	1010 mg/kg
O=C(O)C1CCc2cc(C3CCCCC3)ccc21 (stereo unspecified)	287 mg/kg and 230 mg/kg
CN1CCC(CN2c3ccccc3Sc3ccccc32)C1 (stereo unspecified)	260 mg/kg and 162 mg/kg
CC(C)N(Sc1nc2ccccc2s1)C(C)C	5200 mg/kg
CC1=NN(c2ccc(C)cc2)C(=O)C1	7450 mg/kg
CCCCCCCCCC(=O)OC1(c2ccc(Cl)cc2)CCN(CCCC(=O)c2ccc(F)cc2)CC1	1720 mg/kg

SMILES	LD50
CNC(N)=NC(=N)N	1750 mg/kg
O=C(Cl)c1cccc(C(=O)Cl)c1	2200 mg/kg
CCn1c2ccccc2c2cc(N)ccc21	144 mg/kg and 234 mg/kg
CC(=O)C(NC(=O)C(C)C(O)C(C)NC(=O)C(NC(=O)c1nc(C(CC(N)=O)NCC(N)C(N)=O)nc(N)c1C)C(OC1OC(CO)C(O)C(O)C1(C)OC1OC(CO)C(O)C(O)(C(N)=O)C1O)c1cnc[nH]1)C(=O)NCCC1=NC(c2nc(C(N)=O)cs2)CS1 (stereo unspecified)	649 mg/kg
NCCCCC(CN)CCCN (stereo unspecified)	760 mg/kg
CCOC(C1=NCC(C)(C)CN1)c1ccc(OC)cc1 (stereo unspecified)	625 mg/kg
O=c1c2ccccc2nc2n1OCC2	395 mg/kg
COc1ccc(CN2CCN(C(c3ccc(F)cc3)c3ccc(F)cc3)CC2)c(OC)c1OC	307 mg/kg
Cc1ccc(SN2C(=O)c3ccccc3C2=O)cc1	5060 mg/kg
CC(C)C1=CCC(CCOC=O)=CC1	3570 mg/kg
O=C(O)CCC(=O)c1ccc2oc3ccccc3c2c1	1280 mg/kg
CCOP(=O)(OCC)SCN1C(=O)c2ccccc2C1=O	11 mg/kg
CC1(C)OCC(COC(=O)Cc2ccc3c(c2)OCc2ccccc2C3=O)O1 (stereo unspecified)	92 mg/kg
CCOP(=S)(OCC)SCn1nnc2ccccc2c1=O	7 mg/kg
N#CSCSC#N	55 mg/kg
CNC(=O)ON=C1SCCSC1(C)C	0.27 mg/kg
Cc1c[nH]cn1	751 mg/kg
CC(=O)OCC=Cc1ccccc1	3300 mg/kg
CCCCOC(=O)n1c(Br)nc(Br)c1Br	44 mg/kg
CC(=O)OCCCc1ccccc1	4700 mg/kg
CCCC[N+]1(C)[C@@H]2C[C@@H](OC(=O)[C@H](CO)c3ccccc3)C[C@H]1[C@@H]1O[C@@H]12 (stereo partly specified)	1040 mg/kg
CCCCC(CC)(C(=O)OCC)C(=O)OCCN(CC)CC (stereo unspecified)	638 mg/kg
CCC(C)=CCCC(C)=CC#N	2600 mg/kg
CC(=O)N(OCCN(C)C)C12CC3CC(CC(C3)C1)C2	630 mg/kg
CN1CCC(=C2c3ccccc3Sc3ccccc32)CC1	1190 mg/kg and 550 mg/kg
Cc1[nH]c(=O)c(C#N)cc1-c1ccncc1	91 mg/kg

SMILES	LD50
O=C(O)CCCCCC(=O)O	7000 mg/kg
CCOC(C1=NCCCN1)c1ccc(Cl)c(Cl)c1 (stereo unspecified)	370 mg/kg
CC(C(=O)O)c1ccc2c(c1)[nH]c1ccc(Cl)cc12 (stereo unspecified)	74 mg/kg
COc1ccc(S(=O)(=O)Nc2nnc(C(C)(C)C)s2)cc1	1150 mg/kg
CCCCN1CCOCC1	338 mg/kg
CC(C)(C)c1ccccc1	3040 mg/kg
NCCNc1ccc(N)cc1	190 mg/kg
N#C/C(=C1\SCC(c2ccccc2Cl)S1)n1ccnc1 (stereo unspecified)	652 mg/kg
OC(Nc1nccs1)C(Cl)(Cl)Cl (stereo unspecified)	2500 mg/kg
FC(F)(F)c1nc2c(Br)cc(Br)c(Br)c2[nH]1	12.8 mg/kg
CC(C)(CCl)c1cc(Cl)nnc1Cl	1000 mg/kg
COC(F)=C(C(F)(F)F)C(F)(F)F	1070 mg/kg
CC1(CCl)COC1	1120 mg/kg
C=C1CC[C@H](O)C/C1=C/C=C1\CCC[C@]2(C)[C@@H]([C@H](C)/C=C/[C@H](C)C(C)C)CC[C@@H]12	10 mg/kg
CCCC(C)(Oc1ccc(Cc2ccc(Cl)cc2)cc1)C(=O)OCc1cccnc1 (stereo unspecified)	10000 mg/kg
Cc1cc(C)c(Cc2cc(C)c(C)cc2C)cc1C	4500 mg/kg
O=C(NCCO[N+](=O)[O-])c1cccnc1	1220 mg/kg
CCCCCCCCc1ccc(C(=O)CCN2CCCCC2)cc1	417 mg/kg
OCC(CBr)(CBr)CBr	1630 mg/kg
Cc1ccccc1N1C(=O)C=CC1=O	250 mg/kg
N#CCCl	220 mg/kg
c1ccc2c(c1)Cc1ccccc1N2	2140 mg/kg
CCCCC(CC)CN1C(=O)C2C3C=CC(C3)C2C1=O (stereo unspecified)	2800 mg/kg
